SMILES strings stand for the structures.

Assay [1] has as its target EGFR (Homo sapiens (Human), UniProt P00533). Put plainly: ErbB Enzyme Assay (HTRF KinEASE-TK), Assay 3. The class given is biochemical. (TR-FRET usually uses a lanthanide donor and a delayed reading to cut background.)
For assay [2], the target named is ErbB2 WT (Homo sapiens (Human), UniProt P04626). Kind of assay: ErbB Enzyme Assay (HTRF KinEASE-TK), Assay 2. The class given is biochemical.
In assay [3] the target is EGFR wild type (EGFR WT) (Homo sapiens (Human), UniProt P00533). Put plainly: Cellular Phosphorylation Assay, Assay 5 (EGF-stimulated EGFR phosphorylation, NIH 3T3 cells). Type of assay: cell-based.
Assay [4] concerns the target ErbB2 with Exon 20 YVMA insertion (HER2-YVMA) (Homo sapiens (Human), UniProt P04626, INS775YVMA). Kind of assay: Cellular Phosphorylation Assay, Assay 4 (constitutive ErbB2 phosphorylation, NIH 3T3 cells). Type of assay: cell-based.
[5] abbreviates: EGF-stimulated EGFR WT phosphorylation.
[6] abbreviates: cellular EGFR WT phosphorylation, EGF-stimulated.
The mark [7] stands for this setting: cellular ErbB2 YVMA phosphorylation.

ErbB2 WT, sequence (P04626 23-1255): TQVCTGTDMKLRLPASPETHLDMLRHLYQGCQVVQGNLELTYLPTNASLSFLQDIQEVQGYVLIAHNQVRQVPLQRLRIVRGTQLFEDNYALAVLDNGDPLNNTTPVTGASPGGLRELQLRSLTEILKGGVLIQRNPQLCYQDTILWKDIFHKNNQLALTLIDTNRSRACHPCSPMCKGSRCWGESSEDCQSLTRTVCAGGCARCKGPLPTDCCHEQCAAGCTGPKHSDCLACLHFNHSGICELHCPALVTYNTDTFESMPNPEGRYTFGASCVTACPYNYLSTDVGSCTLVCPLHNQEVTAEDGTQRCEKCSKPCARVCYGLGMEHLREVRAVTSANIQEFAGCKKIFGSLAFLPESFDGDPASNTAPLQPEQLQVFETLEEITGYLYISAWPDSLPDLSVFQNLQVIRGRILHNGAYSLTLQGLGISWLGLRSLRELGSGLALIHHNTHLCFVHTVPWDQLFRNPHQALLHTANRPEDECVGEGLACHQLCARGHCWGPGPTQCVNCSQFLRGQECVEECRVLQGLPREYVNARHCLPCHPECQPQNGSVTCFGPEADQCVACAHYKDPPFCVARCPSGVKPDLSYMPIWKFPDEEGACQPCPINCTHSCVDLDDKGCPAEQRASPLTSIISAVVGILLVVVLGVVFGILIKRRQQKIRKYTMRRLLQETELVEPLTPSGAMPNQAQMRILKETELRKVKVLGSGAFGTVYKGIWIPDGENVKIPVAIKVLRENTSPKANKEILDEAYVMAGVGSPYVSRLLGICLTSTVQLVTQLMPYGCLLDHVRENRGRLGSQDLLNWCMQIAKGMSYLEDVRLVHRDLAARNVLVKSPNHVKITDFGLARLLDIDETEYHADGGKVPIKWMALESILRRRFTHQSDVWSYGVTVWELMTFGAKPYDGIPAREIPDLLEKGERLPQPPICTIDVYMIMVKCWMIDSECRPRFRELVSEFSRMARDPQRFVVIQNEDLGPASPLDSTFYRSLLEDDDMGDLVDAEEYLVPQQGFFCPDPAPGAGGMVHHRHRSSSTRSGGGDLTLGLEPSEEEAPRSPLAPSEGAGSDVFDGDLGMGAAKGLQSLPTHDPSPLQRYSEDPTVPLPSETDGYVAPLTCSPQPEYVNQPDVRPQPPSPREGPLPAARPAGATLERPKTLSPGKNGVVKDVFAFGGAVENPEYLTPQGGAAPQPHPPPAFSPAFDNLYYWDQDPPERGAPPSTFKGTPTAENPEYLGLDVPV
ErbB2 with Exon 20 YVMA insertion (HER2-YVMA), sequence (P04626 other isoform, or with tags, fused parts or gaps ins YVMA behind 775): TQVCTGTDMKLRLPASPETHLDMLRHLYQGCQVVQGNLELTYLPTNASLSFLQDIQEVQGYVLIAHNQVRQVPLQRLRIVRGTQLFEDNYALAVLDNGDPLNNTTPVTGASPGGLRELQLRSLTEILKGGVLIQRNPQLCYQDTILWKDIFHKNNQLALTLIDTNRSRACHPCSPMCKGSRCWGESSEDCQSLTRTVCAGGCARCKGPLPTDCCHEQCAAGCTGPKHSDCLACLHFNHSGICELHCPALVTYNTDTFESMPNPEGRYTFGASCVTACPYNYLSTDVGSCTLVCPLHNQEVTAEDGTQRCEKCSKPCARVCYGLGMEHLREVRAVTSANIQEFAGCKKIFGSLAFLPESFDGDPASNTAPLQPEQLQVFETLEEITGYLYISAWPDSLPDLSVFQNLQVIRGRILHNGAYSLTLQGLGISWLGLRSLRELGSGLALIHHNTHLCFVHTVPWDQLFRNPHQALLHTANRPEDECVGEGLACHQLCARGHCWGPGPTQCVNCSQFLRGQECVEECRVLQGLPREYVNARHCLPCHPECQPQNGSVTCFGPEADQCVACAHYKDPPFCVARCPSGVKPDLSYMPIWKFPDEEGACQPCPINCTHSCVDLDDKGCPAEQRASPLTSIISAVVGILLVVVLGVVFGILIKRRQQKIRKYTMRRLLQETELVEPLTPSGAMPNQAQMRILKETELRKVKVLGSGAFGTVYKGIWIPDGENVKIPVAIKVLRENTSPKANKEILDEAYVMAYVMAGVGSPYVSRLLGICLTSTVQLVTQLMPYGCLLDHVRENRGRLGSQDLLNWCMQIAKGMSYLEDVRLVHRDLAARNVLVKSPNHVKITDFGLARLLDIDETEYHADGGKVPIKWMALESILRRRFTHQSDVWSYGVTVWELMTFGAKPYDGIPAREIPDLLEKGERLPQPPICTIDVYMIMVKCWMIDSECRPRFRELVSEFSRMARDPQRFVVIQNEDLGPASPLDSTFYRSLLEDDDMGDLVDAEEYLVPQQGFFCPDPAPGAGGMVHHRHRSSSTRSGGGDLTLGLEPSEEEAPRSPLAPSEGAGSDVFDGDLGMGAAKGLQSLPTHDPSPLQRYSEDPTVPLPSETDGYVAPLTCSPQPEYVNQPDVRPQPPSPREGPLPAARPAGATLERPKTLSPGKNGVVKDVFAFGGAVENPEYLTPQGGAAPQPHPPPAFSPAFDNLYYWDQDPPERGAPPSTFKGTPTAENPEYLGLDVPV
EGFR, sequence (P00533 25-1210): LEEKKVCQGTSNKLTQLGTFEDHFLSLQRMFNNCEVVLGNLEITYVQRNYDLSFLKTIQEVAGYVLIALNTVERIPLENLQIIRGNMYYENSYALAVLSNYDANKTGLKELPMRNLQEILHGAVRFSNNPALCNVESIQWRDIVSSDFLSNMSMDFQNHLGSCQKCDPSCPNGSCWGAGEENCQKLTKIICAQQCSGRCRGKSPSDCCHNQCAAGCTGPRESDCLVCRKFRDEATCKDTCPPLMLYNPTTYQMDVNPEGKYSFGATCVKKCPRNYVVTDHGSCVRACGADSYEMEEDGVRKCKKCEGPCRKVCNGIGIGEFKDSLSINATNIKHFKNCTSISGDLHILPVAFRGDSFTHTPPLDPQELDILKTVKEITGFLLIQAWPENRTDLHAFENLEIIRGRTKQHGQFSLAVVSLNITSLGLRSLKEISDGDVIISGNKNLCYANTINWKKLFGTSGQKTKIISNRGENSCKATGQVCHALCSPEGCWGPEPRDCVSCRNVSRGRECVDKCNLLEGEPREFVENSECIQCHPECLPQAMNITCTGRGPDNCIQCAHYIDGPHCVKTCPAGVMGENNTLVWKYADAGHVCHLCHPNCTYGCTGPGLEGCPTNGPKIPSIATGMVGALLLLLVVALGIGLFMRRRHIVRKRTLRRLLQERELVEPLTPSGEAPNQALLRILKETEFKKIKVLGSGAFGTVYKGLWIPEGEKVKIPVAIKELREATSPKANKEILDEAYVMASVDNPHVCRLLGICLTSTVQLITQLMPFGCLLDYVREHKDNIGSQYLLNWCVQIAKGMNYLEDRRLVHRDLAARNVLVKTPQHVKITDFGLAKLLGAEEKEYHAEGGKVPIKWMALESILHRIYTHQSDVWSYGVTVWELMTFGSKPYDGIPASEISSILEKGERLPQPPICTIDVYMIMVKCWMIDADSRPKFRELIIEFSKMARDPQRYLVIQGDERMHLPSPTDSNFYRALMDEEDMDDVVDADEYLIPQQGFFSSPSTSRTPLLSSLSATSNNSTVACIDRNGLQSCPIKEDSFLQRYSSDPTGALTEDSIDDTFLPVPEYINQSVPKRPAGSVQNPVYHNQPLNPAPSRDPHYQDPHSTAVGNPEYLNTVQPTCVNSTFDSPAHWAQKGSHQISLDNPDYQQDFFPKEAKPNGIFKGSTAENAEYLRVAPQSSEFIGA
EGFR wild type (EGFR WT), sequence (P00533 25-1210): as above

A word on the IC50: it is the concentration that gives 50% inhibition. A higher IC50 goes with lower potency. On to `C=CC(=O)N1CC[C@@H]2[C@H](c3ccc4ncnc(Nc5cc(C)c(Oc6ccc7c(c6)ncn7C)cc5F)c4n3)CC[C@@H]21` (racemic) [Example 134, rac-1-((3aR,4R,6aS)-4-(4-((2-fluoro-5-methyl-4-((1-methyl-1H-benzo[d]imidazol-5-yl)oxy)phenyl)amino)pyrido[3,2-d]pyrimidin-6-yl)hexahydrocyclopenta[b]pyrrol-1(2H)-yl)prop-2-en-1-one], for which the half-maximal inhibitory concentration (IC50) in assay [1] (EGFR enzyme) is at least 10000 nM; in assay [2] (ErbB2 WT enzyme), 86.3 nM; in assay [3] (setting [5]), at least 5000 nM; in assay [4] (ErbB2 YVMA phosphorylation), 222 nM.
As to `C=CC(=O)N1CCN(c2ccc3ncnc(Nc4ccc(Oc5cc(F)c6c(c5)ncn6C)c(C)c4)c3n2)CC12CC2` [Example 281], the half-inhibitory concentration (IC50) came out at 102 nM in assay [1] (EGFR enzyme assay), 10.4 nM in assay [2] (ErbB2 WT enzyme assay), 129 nM in assay [3] (setting [6]) and 10.9 nM in assay [4] (setting [7]).
With `C=C(F)C(=O)N1[C@@H]2CC[C@H]1C[C@@H](c1ccc3ncnc(Nc4cc(C)c(Oc5ccn6ncnc6c5)cc4F)c3n1)C2` [Example 207, 1-((1R,3r,5S)-3-(4-((4-([1,2,4]triazolo[1,5-a]pyridin-7-yloxy)-2-fluoro-5-methylphenyl)amino)pyrido[3,2-d]pyrimidin-6-yl)-8-azabicyclo[3.2.1]octan-8-yl)-2-fluoroprop-2-en-1-one], the half-inhibitory concentration (IC50) in assay [1] (EGFR enzyme) was at least 10000 nM; in assay [2] (ErbB2 WT enzyme), 150 nM; in assay [3] (setting [5]) it was at least 5000 nM; in assay [4] (ErbB2 YVMA phosphorylation), 685 nM.
For the molecule `C=CC(=O)N(C)[C@H]1CCN(c2ccc3ncnc(Nc4ccc(Oc5ccn6ncnc6c5)c(C)c4F)c3n2)C1` [Example 352], the half-maximal inhibitory concentration (IC50) is 2910 nM in assay [1] (EGFR enzyme assay), 25.4 nM in assay [2] (ErbB2 WT enzyme assay), at least 5000 nM in assay [3] (setting [6]) and 11.5 nM in assay [4] (setting [7]).
The matching figures for `C=CC(=O)N(C)[C@@H]1CCN(c2ccc3ncnc(Nc4ccc(Oc5ccn6ncnc6c5)c(C)c4F)c3n2)C1` [Example 349]: 2680 nM, 29.3 nM, at least 5000 nM and 35.8 nM.
The matching figures for `C=CC(=O)N1CC2(CCN(c3ccc4ncnc(Nc5ccc(Oc6ccn7ncnc7c6)c(C)c5F)c4n3)C2)C1` [Example 307]: at least 10000 nM, 104 nM, at least 5000 nM and 36.6 nM.
For `C=CC(=O)N1C[C@H]2C[C@H](c3ccc4ncnc(Nc5cc(C)c(Oc6ccn7ncnc7c6)cc5F)c4n3)C[C@H]2C1` [Example 201, 1-((3aR,5s,6aS)-5-(4-((4-([1,2,4]triazolo[1,5-a]pyridin-7-yloxy)-2-fluoro-5-methylphenyl)amino)pyrido[3,2-d]pyrimidin-6-yl)hexahydrocyclopenta[c]pyrrol-2(1H)-yl)prop-2-en-1-one], the IC50 is 9450 nM in assay [1] (EGFR enzyme), 68.1 nM in assay [2] (ErbB2 WT enzyme), at least 5000 nM in assay [3] (setting [5]) and 213 nM in assay [4] (ErbB2 YVMA phosphorylation).
On to `C=CC(=O)N1[C@@H]2CC[C@H]1[C@H](c1ccc3ncnc(Nc4ccc(Oc5ccn6ncnc6c5)c(C)c4)c3n1)C2` (single isomer, unassigned) [Example 233], for which the concentration for half-maximal inhibition (IC50) was 4880 nM in assay [1] (EGFR enzyme), 121 nM in assay [2] (ErbB2 WT enzyme), at least 5000 nM in assay [3] (setting [5]) and 83.8 nM in assay [4] (ErbB2 YVMA phosphorylation).
Taken in the same sequence, the figures for `C=CC(=O)N1CCC(Oc2ccc3ncnc(Nc4ccc(Oc5cnn6ccnc6c5)c(Cl)c4)c3n2)CC1` [Example 54, 1-(4-((4-((3-chloro-4-(imidazo[1,2-b]pyridazin-7-yloxy)phenyl)amino)pyrido[3,2-d]pyrimidin-6-yl)oxy)piperidin-1-yl)prop-2-en-1-one] were 1380 nM, 423 nM, 1470 nM and 40 nM.
Taken in the same sequence, the figures for `C=CC(=O)N1C[C@@H]2C[C@H]1CN2c1ccc2ncnc(Nc3ccc(Oc4ccn5ncnc5c4)c(C)c3F)c2n1` [Example 95, 1-((1S,4S)-5-(4-((4-([1,2,4]triazolo[1,5-a]pyridin-7-yloxy)-2-fluoro-3-methylphenyl)amino)pyrido[3,2-d]pyrimidin-6-yl)-2,5-diazabicyclo[2.2.1]heptan-2-yl)prop-2-en-1-one] were 378 nM, 38 nM, 49.5 nM and 5 nM.
Taken in the same sequence, the figures for `C=CC(=O)N1CC[C@@H]2C[C@@H](c3ccc4ncnc(Nc5cc(C)c(Oc6ccn7ncnc7c6)cc5F)c4n3)C[C@@H]21` (single isomer, unassigned) [Example 224] were 2290 nM, 58 nM, at least 5000 nM and 91.3 nM.
In the case of `C=CC(=O)N1C[C@H]2C[C@@H]1CN2c1ccc2ncnc(Nc3ccc(Oc4ccn5ncnc5c4)c(Cl)c3F)c2n1` [Example 92, 1-((1R,4R)-5-(4-((4-([1,2,4]triazolo[1,5-a]pyridin-7-yloxy)-3-chloro-2-fluorophenyl)amino)pyrido[3,2-d]pyrimidin-6-yl)-2,5-diazabicyclo[2.2.1]heptan-2-yl)prop-2-en-1-one], the half-maximal inhibitory concentration (IC50) in assay [1] (EGFR enzyme) was 2430 nM; in assay [2] (ErbB2 WT enzyme), 126 nM; in assay [3] (setting [5]), 1880 nM; in assay [4] (ErbB2 YVMA phosphorylation), 15.4 nM.
Taken in the same sequence, the figures for `C=CC(=O)N1CCCN(c2ccc3ncnc(Nc4ccc(Oc5ccn6ncnc6c5)c(C)c4F)c3n2)CC1` [Example 100, 1-(4-(4-((4-([1,2,4]triazolo[1,5-a]pyridin-7-yloxy)-2-fluoro-3-methylphenyl)amino)pyrido[3,2-d]pyrimidin-6-yl)-1,4-diazepan-1-yl)prop-2-en-1-one] were 9570 nM, 132 nM, at least 5000 nM and 66.1 nM.
As for `C=CC(=O)N1CCN(c2ccc3ncnc(Nc4ccc(Oc5cc(F)c6c(c5)ncn6C)c(C)c4)c3n2)C[C@@H]1C1CC1` (racemic) [Example 278], the half-maximal inhibitory concentration (IC50) in assay [1] (EGFR enzyme assay) was found to be 6630 nM; in assay [2] (ErbB2 WT enzyme assay), 54.6 nM; in assay [3] (setting [6]), 1820 nM; in assay [4] (setting [7]), 18.1 nM.
The matching figures for `C=CC(=O)N1CCN(c2ccc3ncnc(Nc4ccc(Oc5ccn6ncnc6c5)c(Cl)c4F)c3n2)C[C@@H]1COC` [Example 348]: 414 nM, 12.1 nM, 348 nM and 8.2 nM.
Taken in the same sequence, the figures for `C=CC(=O)N1CCN(c2ccc3ncnc(Nc4ccc(Oc5ccc6c(c5)ncn6C)c(C)c4F)c3n2)CC12CC2` [Example 339] were at least 10000 nM, 14.1 nM, 361 nM and 16.4 nM.
Regarding `C=CC(=O)N1CCCN(c2nc3c(Nc4ccc(Oc5ccn6ncnc6c5)c(C)c4F)ncnc3cc2OC)CC1` [Example 150, 1-(4-(4-((4-([1,2,4]triazolo[1,5-a]pyridin-7-yloxy)-2-fluoro-3-methylphenyl)amino)-7-methoxypyrido[3,2-d]pyrimidin-6-yl)-1,4-diazepan-1-yl)prop-2-en-1-one], the IC50 in assay [1] (EGFR enzyme) is 1550 nM; in assay [2] (ErbB2 WT enzyme), 16.6 nM; in assay [3] (setting [5]) it was at least 5000 nM; in assay [4] (ErbB2 YVMA phosphorylation), 47 nM.
On to `C=CC(=O)N1C[C@H]2CC[C@@H](C1)[C@@H]2c1ccc2ncnc(Nc3ccc(Oc4ccn5ncnc5c4)c(C)c3F)c2n1` [Example 223, 1-((1R,5S,8r)-8-(4-((4-([1,2,4]triazolo[1,5-a]pyridin-7-yloxy)-2-fluoro-3-methylphenyl)amino)pyrido[3,2-d]pyrimidin-6-yl)-3-azabicyclo[3.2.1]octan-3-yl)prop-2-en-1-one], for which the IC50 in assay [1] (EGFR enzyme) is 1960 nM; in assay [2] (ErbB2 WT enzyme) it was 48.9 nM; in assay [3] (setting [5]) it was at least 5000 nM; in assay [4] (ErbB2 YVMA phosphorylation) it was 145 nM.
For `C=CC(=O)N1CCN(c2ccc3ncnc(Nc4cc(Cl)c(Oc5cnc6c(c5)ncn6C)cc4F)c3n2)C[C@@H]1C1CC1` [Example 440], the IC50 in assay [1] (EGFR enzyme assay) was at least 10000 nM; in assay [2] (ErbB2 WT enzyme assay) it was 189 nM; in assay [3] (setting [6]) it was at least 5000 nM; in assay [4] (setting [7]) it was 42.8 nM.
Consider `C=CC(=O)N1CCN(c2nc3c(Nc4ccc(Oc5ccn6ncnc6c5)c(Cl)c4F)ncnc3cc2OC)CC1` [Example 148, 1-(4-(4-((4-([1,2,4]triazolo[1,5-a]pyridin-7-yloxy)-3-chloro-2-fluorophenyl)amino)-7-methoxypyrido[3,2-d]pyrimidin-6-yl)piperazin-1-yl)prop-2-en-1-one], for which the IC50 in assay [1] (EGFR enzyme) came out at 16.1 nM; in assay [2] (ErbB2 WT enzyme), 0.6 nM; in assay [3] (setting [5]), 69 nM; in assay [4] (ErbB2 YVMA phosphorylation), 4.4 nM.
In the case of `C=CC(=O)N1C[C@@H](c2ccc3ncnc(Nc4cc(C)c(Oc5ccc6c(c5)ncn6C)cc4F)c3n2)CC[C@H]1C` [Example 170, 1-((2R,5S)-5-(4-((2-fluoro-5-methyl-4-((1-methyl-1H-benzo[d]imidazol-5-yl)oxy)phenyl)amino)pyrido[3,2-d]pyrimidin-6-yl)-2-methylpiperidin-1-yl)prop-2-en-1-one], the 50% inhibitory concentration (IC50) in assay [1] (EGFR enzyme) is at least 10000 nM; in assay [2] (ErbB2 WT enzyme), 261 nM; in assay [3] (setting [5]), at least 5000 nM; in assay [4] (ErbB2 YVMA phosphorylation) it was 44.9 nM.
The matching figures for `C=CC(=O)N1CCN(c2ccc3ncnc(Nc4ccc(Oc5ccc6scnc6c5)c(C)c4F)c3n2)CC1(C)C` [Example 243, 1-(4-(4-((4-(benzo[d]thiazol-5-yloxy)-2-fluoro-3-methylphenyl)amino)pyrido[3,2-d]pyrimidin-6-yl)-2,2-dimethylpiperazin-1-yl)prop-2-en-1-one]: 1210 nM, 338 nM, 666 nM and 50.2 nM.

For the origin of these results see US12447153B2, “HER2 mutation inhibitors” (Array BioPharma Inc., priority 2021, dated 2025).
